Measurements reported in ChEMBL document CHEMBL3137667, “[Drug-induced liver injury; fourteenth updated edition of the bibliographic database of liver injuries and related drugs]” (Gastroenterol Clin Biol, 2004).

Key:
[1] = human
[2] = Times to onset, minimal and maximal, observed in the indexed observations. [column 'DELAI' in source]; details: human
[3] = Highest frequency of acute liver toxicity observed during clinical trials, expressed as a percentage. [column '% AIGUE' in source]; details: human
[4] = human; remark: listed apart in the source
[5] = Presence of at least one case with successful reintroduction. [column 'REINT' in source]; details: human
[6] = human; remark: listed apart in the source
[7] = Highest frequency of moderate liver toxicity observed during clinical trials, expressed as a percentage. [column '% BIOL' in source]; details: human
[8] = human; remark: listed apart in the source
[9] = human; remark: listed apart in the source
[10] = human; remark: listed apart in the source
[11] = human; remark: listed apart in the source
[12] = human; remark: listed apart in the source
[13] = human, serum
[14] = Proposed mechanism(s) of liver damage. [column 'MEC' in source]; details: human
[15] = human, serum; remark: listed apart in the source
[16] = human, serum, 4383 h
[17] = human; remark: listed apart in the source
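Throughout, for Hepatotoxicity (association with vascular disease): count of indexed literature references reporting vascular liver injury in humans, e.g. peliosis hepatitis, hepatic veno-occlusive disease or Budd-Chiari syndrome.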
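Throughout, for Hepatotoxicity (benign tumour): value is a count of indexed literature references citing a benign tumour confirmed by histopathology.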
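Throughout, for Hepatotoxicity (choleostasis): human cholestatic liver injury, shown by histopathology or by peak ALT or AST elevation over alkaline phosphatase ratio below 2, value counts indexed literature reports.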
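Throughout, for Hepatotoxicity (chronic liver disease): chronic liver injury confirmed by histopathology or persistently raised serum aminotransferase activity beyond 6 months, value given as the count of indexed literature references.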
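Throughout, for Hepatotoxicity (cirrhosis): value is a count of indexed literature references reporting cirrhosis confirmed by histopathology.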
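Throughout, for Hepatotoxicity (cytolytic): human cytolytic liver injury, shown by histopathology or by a ratio above 5 of peak ALT or AST elevation to alkaline phosphatase elevation, value counts indexed references.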
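Throughout, for Hepatotoxicity (granulomatous hepatitis): value is a count of indexed literature references reporting granulomatous liver disease confirmed by histopathology.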
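Throughout, for Hepatotoxicity (malignant tumour): malignant tumour confirmed by histopathology, value gives the count of indexed literature references reporting it.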
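Throughout, for Hepatotoxicity (severe hepatitis): human clinical data: severe hepatitis, meaning potentially life-threatening liver failure or clinically observed cases, the value counts how many indexed literature references report it.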
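Throughout, for Hepatotoxicity (steatosis): steatosis confirmed by histopathology, value is the count of indexed references.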

Molecule | Hepatotoxicity (severe hepatitis) [1] | Hepatotoxicity (time to onset) [2] | Hepatotoxicity (acute) [3] | Hepatotoxicity (malignant tumour) [4] | Hepatotoxicity (successful reintroduction) [5] | Hepatotoxicity (cytolytic) [6] | Hepatotoxicity (moderate) [7] | Hepatotoxicity (cirrhosis) [8] | Hepatotoxicity (choleostasis) [9] | Hepatotoxicity (benign tumour) [10] | Hepatotoxicity (association with vascular disease) [11] | Hepatotoxicity (granulomatous hepatitis) [12] | Hepatotoxicity (acute) [13] | Hepatotoxicity (mechanism) [14] | Hepatotoxicity (moderate) [15] | Hepatotoxicity (chronic liver disease) [16] | Hepatotoxicity (steatosis) [17] | further results
O=C(CCCCC(=O)Nc1c(I)cc(I)c(C(=O)O)c1I)Nc1c(I)cc(I)c(C(=O)O)c1I [IODIPAMIDE] | 0 | 3 days - 1 week | 0% | 0 | yes | 6 | 18.3% | 0 | 0 | 0 | 0 | 0 | 6 | Dose-dependant | 2 | 0 | 1 | –
Clc1ccc2nsnc2c1NC1=NCCN1 [TIZANIDINE] | – | 6 days - 3.5 months | – | 0 | yes | – | – | 0 | – | 0 | 0 | – | – | – | 2 | 0 | 1 | Hepatotoxicity (severe hepatitis) ([1]; Liver): 2; Hepatotoxicity (cytolytic) ([6]; Liver): 1; Hepatotoxicity (moderate) ([7]; Liver): 0%; Hepatotoxicity (choleostasis) ([9]; Liver): 0; Hepatotoxicity (granulomatous hepatitis) ([12]; Liver): 0; Hepatotoxicity (mechanism) ([14]; Liver): Allergic
CCc1nc(N)nc(N)c1-c1ccc(Cl)cc1.COc1ncnc(NS(=O)(=O)c2ccc(N)cc2)c1OC | 3 | 1 day - 3 months | 23.5% | 0 | yes | 5 | 22.5% | 0 | 4 | 0 | 0 | 2 | 14 | Allergic | 11 | 0 | 0 | –
CCc1nn(CCCN2CCN(c3cccc(Cl)c3)CC2)c(=O)n1CCOc1ccccc1 [NEFAZODONE] | 11 | 1 week - 2 years | 0% | 0 | yes | 14 | 0% | 0 | 0 | 0 | 0 | 0 | 16 | Allergic | 4 | 0 | 0 | –
INTERFERON GAMMA-1A | 1 | 6 days - 3 months | 0% | 0 | yes | 2 | 65% | 0 | 0 | 0 | 0 | 0 | 3 | Dose-dependant | 50 | 0 | 0 | –
COc1ccc2[nH]c([S+]([O-])Cc3ncc(C)c(OC)c3C)nc2c1 (configuration not stated) [OMEPRAZOLE] | 1 | 2 days - 1 year | 3.1% | 0 | yes | 8 | 47% | 0 | 3 | 0 | 0 | 0 | 10 | Dose-dependant | 24 | 0 | 0 | –
CCCSc1ccc2nc(NC(=O)OC)[nH]c2c1 [ALBENDAZOLE] | – | 1 week - 6 months | – | 0 | yes | 3 | – | 0 | 2 | 0 | 0 | 0 | 8 | Reactive metabolite | 25 | 0 | 0 | Hepatotoxicity (severe hepatitis) ([1]; Liver): 0; Hepatotoxicity (acute) ([3]; Liver): 5%; Hepatotoxicity (moderate) ([7]; Liver): 100%
CC[C@@]1(O)C[C@H](O[C@H]2C[C@H](N(C)C)[C@H](O[C@H]3C[C@H](O)[C@H](O[C@H]4CCC(=O)[C@H](C)O4)[C@H](C)O3)[C@H](C)O2)c2c(cc3c(c2O)C(=O)c2c(O)cccc2C3=O)[C@H]1C(=O)OC [ACLARUBICIN] | 1 | – | 0% | 0 | yes | 0 | 26.7% | 0 | 0 | 0 | 0 | 0 | 0 | Dose-dependant | 8 | 0 | 0 | –
COC(=O)C1=C(C)NC(C)=C(C(=O)OC)C1c1ccccc1[N+](=O)[O-] [NIFEDIPINE] | 2 | 2 days - 6 years | 4% | 0 | yes | 5 | 12% | 0 | 7 | 0 | – | 0 | – | Allergic | 6 | 0 | 3 | –
Nc1nc2ccc(OC(F)(F)F)cc2s1 [RILUZOLE] | 0 | 15 days - 9 months | 3.8% | 0 | yes | 5 | 17% | 0 | 0 | 0 | – | 0 | 5 | Dose-dependant | 5 | 0 | 1 | –
CCCC(=O)Nc1ccc(OCC(O)CNC(C)C)c(C(C)=O)c1 (configuration not stated) [ACEBUTOLOL] | – | 1 day - 1 month | – | 0 | yes | 1 | – | 0 | 1 | 0 | 0 | 0 | – | Allergic | 0 | 0 | 0 | Hepatotoxicity (severe hepatitis) ([1]; Liver): 0; Hepatotoxicity (acute) ([3]; Liver): 0%; Hepatotoxicity (moderate) ([7]; Liver): 0%
CN(CCCN1c2ccccc2CCc2ccccc21)CC(=O)c1ccc(Cl)cc1 [LOFEPRAMINE] | 1 | 1 week - 12 weeks | 2.3% | 0 | yes | 2 | 46.5% | 0 | 3 | 0 | 0 | 0 | 3 | – | 7 | 0 | 0 | –
CC(C(=O)O)c1ccc(-c2ccccc2)c(F)c1 (configuration not stated) [FLURBIPROFEN] | 0 | 1 day - 2 months | 0% | 0 | yes | 2 | 8.1% | 0 | 1 | 0 | 0 | 0 | 3 | – | 4 | 0 | 0 | –
